According to US20100184683A1, “ANTIBACTERIAL AND ANTIFUNGAL PEPTIDES” (C3 JIAN, INC., priority 2009, published 2010):
Values after ≈ are worked out from the molar mass of the structure shown. Read-outs that look alike come from different tables or passages of the source. Ends that are not written are not given here. Peptide text beside a SMILES is read from it.

Tests used:
MRSA = assay type: cell-based, Methicillin-resistant Staphylococcus aureus; settings: MRSA; BHI supplemented with 2% glucose, 37° C., aerobic; inoculum 10^5 CFU/ml; 18-24 h or 48 h
Protocol: (§1) In certain embodiments the MIC assays are performed as described herein in the Examples. For each organism, the media and growth conditions utilized is detailed in Table 8.
(§2) In certain embodiments the MIC assays are performed as follows: For each organism, the media and growth conditions utilized is detailed in Table 8.

A. baumannii = assay type: cell-based, Acinetobacter baumannii
Protocol: as §1, §2

B. subtilis = assay type: cell-based, Bacillus subtilis
Protocol: as §1, §2

A. niger = assay type: cell-based, Aspergillus niger
Protocol: as §1, §2

C. jeikeium = experiment: MIC assay, C. jeikeium; assay type: cell-based, Corynebacterium jeikium; settings: TSB supplemented with 1% Tween-80, 37° C., aerobic, inoculum 10^6 CFU/ml, 18-24 h or 48 h
Protocol: as §1, §2

T. rubrum = assay type: cell-based, Trichophyton rubrum
Protocol: as §1, §2

P. aeruginosa = assay type: cell-based, Pseudomonas aeruginosa; settings: P. aeruginosa; MH, 37° C., aerobic; inoculum 10^5 CFU/ml; 18-24 h or 48 h
Protocol: as §1, §2

S. epidermidis = assay type: cell-based
Protocol: as §1, §2

C. difficile = assay type: cell-based, Clostridium difficile
Protocol: as §1, §2

S. mutans = assay type: cell-based, Streptococcus mutans
Protocol: as §1, §2

P. gingivalis = assay type: cell-based, Porphyromonas gingivalis
Protocol: as §1, §2

A. naeslundii = assay type: cell-based, Actinomyces naeslundii
Protocol: as §1, §2

C. albicans = assay type: cell-based, Candida albicans
Protocol: as §1, §2

[1] = A. baumannii, LB, 30° C., anaerobic, inoculum 10^5 CFU/ml, 18-24 h or 48 h
[2] = B. subtilis, BHI, 30° C., aerobic, inoculum 10^5 CFU/ml, 18-24 h or 48 h
[3] = A. niger, Potato Dextrose Agar, 25° C., aerobic, inoculum 10^5 CFU/ml, 18-24 h or 48 h
[4] = T. rubrum, Potato Dextrose Agar, 25° C., aerobic, inoculum 10^5 CFU/ml, 18-24 h or 48 h
[5] = S. epidermidis, BHI supplemented with 0.25% glucose, 37° C., aerobic, inoculum 10^5 CFU/ml, 18-24 h or 48 h
[6] = C. difficile, BHIS, 37° C., anaerobic, inoculum 10^5 CFU/ml, 18-24 h or 48 h

Question: How did the MIC (MRSA) turn out when CC[C@H](C)[C@H](NC(=O)CNC(=O)[C@@H](N)CCSC)C(=O)N[C@H](C(=O)N[C@@H](C)C(=O)NCC(=O)N[C@H](C(=O)N[C@H](C(=O)N[C@@H](CCCCN)C(=O)N[C@@H](Cc1ccccc1)C(=O)N[C@H](C(=O)N[C@@H](CCCCN)C(=O)NCC(=O)N[C@@H](CC(C)C)C(=O)N[C@H](C(=O)N[C@@H](CCC(=O)O)C(=O)N[C@@H](CCCCN)C(=O)N[C@@H](Cc1ccccc1)C(=O)N[C@H](C(=O)NCC(=O)N[C@@H](CCCCN)C(=O)O)[C@@H](C)O)[C@@H](C)CC)[C@@H](C)CC)[C@@H](C)CC)[C@@H](C)CC)[C@@H](C)CC [PF-006] was run?
Answer: The MIC was 50 µM (≈ 114 µg/mL).

Question: And the MIC (A. baumannii; [1])?
Answer: The MIC was 50 µM (≈ 114 µg/mL).

Question: And the MIC (B. subtilis; [2])?
Answer: Its MIC is 25 µM (≈ 56.9 µg/mL).

Question: How did the MIC (MRSA) turn out when CC[C@H](C)[C@H](NC(=O)[C@H](CCCNC(=N)N)NC(=O)[C@@H](NC(=O)[C@H](CCCCN)NC(=O)[C@H](CCCCN)NC(=O)[C@H](CC(C)C)NC(=O)[C@H](CC(C)C)NC(=O)[C@H](CCCCN)NC(=O)[C@H](CCCNC(=N)N)NC(=O)[C@H](Cc1c[nH]cn1)NC(=O)[C@H](CCCCN)NC(=O)[C@H](CCCCN)NC(=O)[C@H](CCCCN)NC(=O)[C@H](C)NC(=O)[C@H](CCSC)NC(=O)[C@H](CCCNC(=N)N)NC(=O)[C@H](CCCCN)NC(=O)[C@H](CCCNC(=N)N)NC(=O)[C@H](CCCNC(=N)N)NC(=O)[C@H](CCCCN)NC(=O)[C@H](CCCCN)NC(=O)[C@@H](NC(=O)[C@@H](NC(=O)[C@H](CO)NC(=O)CN)C(C)C)[C@@H](C)CC)[C@@H](C)O)C(=O)N[C@@H](CCC(N)=O)C(=O)N[C@@H](CCCNC(=N)N)C(=O)N[C@@H](CCCNC(=N)N)C(=O)N[C@@H](CCCNC(=N)N)C(=O)N[C@@H](C)C(=O)NCC(=O)N[C@@H](CCCCN)C(=O)O [PF-527] (H-GSVIKKRRKRMAKKKHRKLLKKTRIQRRRAGK-OH; N-terminus and C-terminus assumed) was run?
Answer: Its MIC is 50 µM (≈ 197 µg/mL).

Question: What about the MIC (A. niger; [3]) of the same compound?
Answer: The MIC was 50 µM (≈ 197 µg/mL).

Question: What about the MIC (C. jeikeium) of the same compound?
Answer: The MIC was 6.25 µM (≈ 24.6 µg/mL).

Question: And the MIC (T. rubrum; [4])?
Answer: The MIC was 25 µM (≈ 98.5 µg/mL).

Question: What about the MIC (P. aeruginosa) of the same compound?
Answer: Its MIC is 50 µM (≈ 197 µg/mL).

Question: What about the MIC (B. subtilis) of the same compound?
Answer: Its MIC is 12.5 µM (≈ 49.3 µg/mL).

Question: And the MIC (S. epidermidis; [5])?
Answer: The MIC was 25 µM (≈ 98.5 µg/mL).

Question: How did the MIC (A. baumannii) turn out when CC[C@H](C)[C@H](NC(=O)[C@H](CO)NC(=O)[C@H](CC(C)C)NC(=O)[C@H](CCSC)NC(=O)[C@H](CC(C)C)NC(=O)[C@H](CCC(=O)O)NC(=O)CNC(=O)[C@H](CCCCN)NC(=O)[C@H](Cc1ccc(O)cc1)NC(=O)[C@H](CCC(=O)O)NC(=O)[C@H](CCCCN)NC(=O)[C@@H](NC(=O)[C@@H](NC(=O)[C@@H](NC(=O)[C@H](CCCCN)NC(=O)[C@H](CCCNC(=N)N)NC(=O)[C@H](CC(C)C)NC(=O)[C@@H](NC(=O)[C@H](CCCCN)NC(=O)[C@H](Cc1ccccc1)NC(=O)[C@H](CCCCN)NC(=O)[C@@H](N)CO)C(C)C)[C@@H](C)CC)[C@@H](C)CC)[C@@H](C)CC)C(=O)N[C@@H](CCC(N)=O)C(=O)N[C@@H](CCCCN)C(=O)N[C@@H](CCC(N)=O)C(=O)N[C@@H](CCCNC(=N)N)C(=O)O [PF-530] (H-SKFKVLRKIIIKEYKGELMLSIQKQR-OH; N-terminus and C-terminus assumed) was run?
Answer: The MIC was 25 µM (≈ 79.4 µg/mL).

Question: What does the source list for CC[C@H](C)[C@H](NC(=O)[C@H](CCC(=O)O)NC(=O)[C@H](CCCCN)NC(=O)[C@@H](NC(=O)[C@H](CCCCN)NC(=O)[C@H](CCC(=O)O)NC(=O)[C@H](CC(C)C)NC(=O)[C@@H](NC(=O)[C@H](CC(=O)O)NC(=O)[C@@H](NC(=O)[C@H](CCC(N)=O)NC(=O)[C@H](CCCCN)NC(=O)[C@H](CCCCN)NC(=O)[C@H](CC(N)=O)NC(=O)[C@@H](N)CCCCN)[C@@H](C)O)[C@@H](C)CC)C(C)C)C(=O)N[C@@H](CC(C)C)C(=O)N[C@@H](CC(=O)O)C(=O)N[C@@H](CCCCN)C(=O)N[C@@H](CCCCN)C(=O)N[C@@H](CCCCN)C(=O)N[C@@H](CCCCN)C(=O)N[C@H](C(=O)N[C@@H](CCCCN)C(=O)N[C@@H](CO)C(=O)N[C@H](C(=O)NCC(=O)N[C@@H](CCC(N)=O)C(=O)N[C@@H](CCCCN)C(=O)N[C@@H](CC(C)C)C(=O)N[C@@H](Cc1ccc(O)cc1)C(=O)O)C(C)C)[C@@H](C)O [PF-538] (H-KNKKQTDILEKVKEILDKKKKTKSVGQKLY-OH; N-terminus and C-terminus assumed)?
Answer: MIC (A. baumannii): 25 µM (≈ 89 µg/mL); MIC (C. difficile): 25 µM (≈ 89 µg/mL)

Question: With CC[C@H](C)[C@H](NC(=O)[C@H](CCCNC(=N)N)NC(=O)[C@@H]1CCCN1C(=O)[C@H](CCC(=O)O)NC(=O)[C@H](CC(C)C)NC(=O)[C@@H]1CCCN1C(=O)[C@H](CC(=O)O)NC(=O)[C@@H](N)CC(C)C)C(=O)N[C@@H](C)C(=O)N1CCC[C@H]1C(=O)N1CCC[C@H]1C(=O)NCC(=O)N[C@@H](CC(=O)O)C(=O)N[C@@H](CCCNC(=N)N)C(=O)N[C@@H](CO)C(=O)N[C@@H](Cc1c[nH]cn1)C(=O)N[C@@H](CCC(N)=O)C(=O)NCC(=O)N[C@@H](C)C(=O)N1CCC[C@H]1C(=O)N[C@@H](C)C(=O)N[C@@H](CS)C(=O)N[C@@H](Cc1c[nH]cn1)C(=O)N[C@@H](CCCNC(=N)N)C(=O)N[C@@H](CC(=O)O)C(=O)N1CCC[C@H]1C(=O)N[C@@H](CC(C)C)C(=O)N[C@@H](CCCNC(=N)N)C(=O)NCC(=O)N[C@@H](CCCNC(=N)N)C(=O)N[C@@H](CO)C(=O)N[C@@H](C)C(=O)N[C@@H](CCCNC(=N)N)C(=O)N[C@@H](CC(=O)O)C(=O)N[C@@H](C)C(=O)N[C@@H](CCC(=O)O)C(=O)N[C@@H](CCCNC(=N)N)C(=O)O [PF-C019] (H-LDPLEPRIAPPGDRSHQGAPACHRDPLRGRSARDAER-OH; N-terminus and C-terminus assumed) as the compound, how does the MIC (A. niger) read?
Answer: Its MIC is 50 µM (≈ 204 µg/mL).

Question: And the MIC (T. rubrum)?
Answer: The MIC was 50 µM (≈ 204 µg/mL).

Question: And the MIC (S. mutans)?
Answer: The MIC was 25 µM (≈ 102 µg/mL).

Question: For CC[C@H](C)[C@H](N)C(=O)N[C@@H](CC(C)C)C(=O)N[C@@H](CC(N)=O)C(=O)N[C@@H](CCCCN)C(=O)N[C@@H](CCCCN)C(=O)N1CCC[C@H]1C(=O)N[C@@H](CCCCN)C(=O)N[C@@H](CC(C)C)C(=O)N1CCC[C@H]1C(=O)N[C@@H](CC(C)C)C(=O)N[C@@H](Cc1c[nH]c2ccccc12)C(=O)N[C@@H](CCCCN)C(=O)N[C@@H](CC(C)C)C(=O)NCC(=O)N[C@@H](CCCCN)C(=O)N[C@@H](CC(N)=O)C(=O)N[C@@H](Cc1ccc(O)cc1)C(=O)N[C@@H](Cc1ccccc1)C(=O)N[C@@H](CCCNC(=N)N)C(=O)N[C@@H](CCCNC(=N)N)C(=O)N[C@@H](Cc1ccccc1)C(=O)N[C@@H](Cc1ccc(O)cc1)C(=O)N[C@H](C(=O)N[C@@H](CC(C)C)C(=O)N1CCC[C@H]1C(=O)N[C@H](C(=O)N[C@@H](Cc1ccccc1)C(=O)N[C@@H](CC(C)C)C(=O)N[C@@H](C)C(=O)O)[C@@H](C)O)C(C)C [PF-C287] (H-ILNKKPKLPLWKLGKNYFRRFYVLPTFLA-OH; N-terminus and C-terminus assumed), which MIC (P. gingivalis) is on record?
Answer: Its MIC is 50 µM (≈ 178 µg/mL).

Question: What about the MIC (A. naeslundii) of the same compound?
Answer: The MIC was 25 µM (≈ 89.1 µg/mL).

Question: What about the MIC (C. albicans) of the same compound?
Answer: Its MIC is 50 µM (≈ 178 µg/mL).

Question: How did the MIC (C. difficile; [6]) turn out when FELVDWLETNLGKILKSKSA [PF-522] was run?
Answer: Its MIC is 25 µM.

Question: How did the MIC (P. gingivalis) turn out when “MPVSKKRYMLSSAYATALGICYGQVATDEKESEITAIPDLLDYLSVEEYLL [PF-C163]” was run?
Answer: The MIC was 50 µM.

Question: What about the MIC (A. naeslundii) of the same compound?
Answer: The MIC was 50 µM.

Question: What about the MIC (S. epidermidis) of the same compound?
Answer: Its MIC is 50 µM.

Question: YIQFHLNQQPRPKVKKIKIFL [PF-531] was tested. Which MIC (A. niger; [3]) did it give?
Answer: The MIC was 25 µM.

Question: And the MIC (C. jeikeium)?
Answer: Its MIC is 6.25 µM.

Question: What about the MIC (A. baumannii; [1]) of the same compound?
Answer: Its MIC is 25 µM.

Question: And the MIC (T. rubrum; [4])?
Answer: The MIC was 50 µM.

Question: What about the MIC (P. aeruginosa) of the same compound?
Answer: The MIC was 50 µM.

Question: What about the MIC (C. difficile; [6]) of the same compound?
Answer: The MIC was 12.5 µM.

Question: What about the MIC (B. subtilis; [2]) of the same compound?
Answer: The MIC was 25 µM.

Question: What about the MIC (S. mutans; S. mutans, TH supplemented with 1% sucrose, 37° C., anaerobic, inoculum 10^5 CFU/ml, 18-24 h or 48 h) of the same compound?
Answer: Its MIC is 12.5 µM.

Question: And the MIC (S. epidermidis; [5])?
Answer: Its MIC is 50 µM.
